In brackets after ≈: the same amount, converted by molar mass. Activity calls are given as the source filed them. No cut-off for these calls is given here.
Columns and labels:
[1] = molecular target: T1, Enoyl-[acyl-carrier-protein] reductase [NADH] (Mycobacterium tuberculosis) (UniProt P9WGR1); test: Inhibition of Mycobacterium tuberculosis H37Rv enoyl ACP reductase assessed as reduction in bacterial growth after 5 days by microplate alamar blue assay
T1 sequence (whole entry): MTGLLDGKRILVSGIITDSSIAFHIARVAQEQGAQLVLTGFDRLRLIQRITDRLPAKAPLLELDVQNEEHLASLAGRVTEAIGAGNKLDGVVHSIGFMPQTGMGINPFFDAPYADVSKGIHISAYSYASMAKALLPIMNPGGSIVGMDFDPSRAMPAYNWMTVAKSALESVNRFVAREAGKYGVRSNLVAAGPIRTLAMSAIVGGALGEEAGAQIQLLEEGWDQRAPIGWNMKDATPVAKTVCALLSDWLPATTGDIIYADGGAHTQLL

[2] = test system: Staphylococcus aureus; test: Antimicrobial activity against Staphylococcus aureus after 18 to 24 hrs by agar well-diffusion method; assay type: functional
[3] = test system: Escherichia coli; test: Antimicrobial activity against Escherichia coli after 18 to 24 hrs by agar well-diffusion method; assay type: functional
[4] = test system: Candida albicans; test: Antimicrobial activity against Candida albicans after 18 to 24 hrs by agar well-diffusion method; assay type: functional
[5] = test system: MCF7; test: Cytotoxicity against human MCF7 cells assessed as cell lysis at 10 ug/ml after 48 hrs by MTT assay; assay type: functional, cell-based
[6] = test system: MCF7; test: Cytotoxicity against human MCF7 cells assessed as cell lysis at 40 ug/ml after 48 hrs by MTT assay; assay type: functional
[7] = test system: MCF7; test: Cytotoxicity against human MCF7 cells assessed as cell lysis at 50 ug/ml after 48 hrs by MTT assay; assay type: functional
[8] = test system: MCF7; test: Cytotoxicity against human MCF7 cells assessed as cell lysis at 30 ug/ml after 48 hrs by MTT assay; assay type: functional
[9] = test system: MCF7; test: Cytotoxicity against human MCF7 cells assessed as cell lysis at 20 ug/ml after 48 hrs by MTT assay; assay type: functional, cell-based
[10] = test system: MCF7; test: Anticancer activity against human MCF7 cells after 48 hrs by MTT assay; assay type: functional, cell-based
[11] = test system: MCF7; test: Cytotoxicity against human MCF7 cells assessed as cell lysis after 48 hrs by MTT assay; assay type: functional

## CN[C@@H]1[C@H](O[C@H]2[C@H](O[C@H]3[C@H](O)[C@@H](O)[C@H](N=C(N)N)[C@@H](O)[C@@H]3N=C(N)N)O[C@@H](C)[C@]2(O)C=O)O[C@@H](CO)[C@H](O)[C@H]1O
[1]
  MIC: 6.25 µg/mL (≈ 10.7 µM)

## O=C(O)c1cn(C2CC2)c2cc(N3CCNCC3)c(F)cc2c1=O [CIPROFLOXACIN]
[1]
  MIC: 3.12 µg/mL (≈ 9.42 µM)
[2]
  MIC: 2 µg/mL (≈ 6.04 µM)

## O=C(/C=C/c1cnc2ccccc2n1)c1ccc(Br)cc1
[3]
  MIC: 25 µg/mL (≈ 73.7 µM)
[4]
  MIC: 75 µg/mL (≈ 221 µM)
[1]
  MIC: 50 µg/mL (≈ 147 µM)
[2]
  MIC: 75 µg/mL (≈ 221 µM)

## O=C(/C=C/c1cnc2ccccc2n1)c1ccc([N+](=O)[O-])cc1
[3]
  MIC: 25 µg/mL (≈ 81.9 µM)
[4]
  MIC: 50 µg/mL (≈ 164 µM)
[1]
  MIC: 25 µg/mL (≈ 81.9 µM)
[2]
  MIC: 50 µg/mL (≈ 164 µM)

## OC(Cn1cncn1)(Cn1cncn1)c1ccc(F)cc1F [FLUCONAZOLE]
[4]
  MIC: 16 µg/mL (≈ 52.2 µM)

## O=C(/C=C/c1cnc2ccccc2n1)c1cccc(O)c1
[3]
  MIC: 5 µg/mL (≈ 18.1 µM)
[4]
  MIC: 10 µg/mL (≈ 36.2 µM)
[1]
  MIC: 3.12 µg/mL (≈ 11.3 µM)
[2]
  MIC: 10 µg/mL (≈ 36.2 µM)

## O=C(/C=C/c1cnc2ccccc2n1)c1ccc(O)cc1
[5]
  Activity: inactive
[3]
  MIC: 5 µg/mL (≈ 18.1 µM)
[6]
  Activity: inactive
[1]
  MIC: 3.12 µg/mL (≈ 11.3 µM)
[7]
  Activity: inactive
[8]
  Activity: inactive
[9]
  Activity: inactive
[2]
  MIC: 5 µg/mL (≈ 18.1 µM)

## O=C(/C=C/c1cnc2ccccc2n1)c1ccc(F)cc1
[5]
  Activity: inactive
[3]
  MIC: 25 µg/mL (≈ 89.8 µM)
[4]
  MIC: 25 µg/mL (≈ 89.8 µM)
[6]
  Activity: inactive
[1]
  MIC: 25 µg/mL (≈ 89.8 µM)
[7]
  Activity: inactive
[8]
  Activity: inactive
[10]
  IC50: 50 µg/mL (≈ 180 µM)
[9]
  Activity: inactive
[2]
  MIC: 75 µg/mL (≈ 270 µM)

## Nc1ccc(C(=O)/C=C/c2cnc3ccccc3n2)cc1
[5]
  Activity: Active
[3]
  MIC: 25 µg/mL (≈ 90.8 µM)
[4]
  MIC: 25 µg/mL (≈ 90.8 µM)
[6]
  Activity: 50%
[1]
  MIC: 25 µg/mL (≈ 90.8 µM)
[7]
  Activity: 50%
[8]
  Activity: 50%
[10]
  IC50: 25 µg/mL (≈ 90.8 µM)
[9]
  Activity: Active
[2]
  MIC: 50 µg/mL (≈ 182 µM)

## O=C(/C=C/c1cnc2ccccc2n1)c1cccc([N+](=O)[O-])c1
[3]
  MIC: 25 µg/mL (≈ 81.9 µM)
[4]
  MIC: 25 µg/mL (≈ 81.9 µM)
[1]
  MIC: 25 µg/mL (≈ 81.9 µM)
[2]
  MIC: 50 µg/mL (≈ 164 µM)

## O=C(/C=C/c1cnc2ccccc2n1)c1ccccc1
[3]
  MIC: 50 µg/mL (≈ 192 µM)
[4]
  MIC: 25 µg/mL (≈ 96 µM)
[1]
  MIC: 25 µg/mL (≈ 96 µM)
[2]
  MIC: 50 µg/mL (≈ 192 µM)

## O=C(/C=C/c1cnc2ccccc2n1)c1cccc(Br)c1
[3]
  MIC: 5 µg/mL (≈ 14.7 µM)
[4]
  MIC: 25 µg/mL (≈ 73.7 µM)
[1]
  MIC: 25 µg/mL (≈ 73.7 µM)
[2]
  MIC: 25 µg/mL (≈ 73.7 µM)

## Nc1cccc(C(=O)/C=C/c2cnc3ccccc3n2)c1
[3]
  MIC: 25 µg/mL (≈ 90.8 µM)
[4]
  MIC: 25 µg/mL (≈ 90.8 µM)
[1]
  MIC: 25 µg/mL (≈ 90.8 µM)
[2]
  MIC: 50 µg/mL (≈ 182 µM)

## O=C(/C=C/c1cnc2ccccc2n1)c1ccc2ccccc2c1
[3]
  MIC: 25 µg/mL (≈ 80.6 µM)
[4]
  MIC: 25 µg/mL (≈ 80.6 µM)
[1]
  MIC: 25 µg/mL (≈ 80.6 µM)
[2]
  MIC: 25 µg/mL (≈ 80.6 µM)

## O=C(/C=C/c1cnc2ccccc2n1)c1ccc(Cl)cc1
[3]
  MIC: 10 µg/mL (≈ 33.9 µM)
[4]
  MIC: 25 µg/mL (≈ 84.8 µM)
[1]
  MIC: 25 µg/mL (≈ 84.8 µM)
[2]
  MIC: 25 µg/mL (≈ 84.8 µM)

## COc1cccc2c1C(=O)c1c(O)c3c(c(O)c1C2=O)C[C@@](O)(C(=O)CO)C[C@@H]3O[C@H]1C[C@H](N)[C@H](O)[C@H](C)O1 [DOXORUBICIN]
[11]
  Activity: 50%
[10]
  IC50: 5 to 7.5 µg

## NC(=O)c1cnccn1
[1]
  MIC: 3.12 µg/mL (≈ 25.3 µM)

## O=C(/C=C/c1cnc2ccccc2n1)c1ccncc1
[3]
  MIC: 25 µg/mL (≈ 95.7 µM)
[4]
  MIC: 50 µg/mL (≈ 191 µM)
[1]
  MIC: 6.25 µg/mL (≈ 23.9 µM)
[2]
  MIC: 50 µg/mL (≈ 191 µM)

## COc1ccc(C(=O)/C=C/c2cnc3ccccc3n2)cc1
[3]
  MIC: 25 µg/mL (≈ 86.1 µM)
[4]
  MIC: 25 µg/mL (≈ 86.1 µM)
[1]
  MIC: 25 µg/mL (≈ 86.1 µM)
[2]
  MIC: 50 µg/mL (≈ 172 µM)

From ChEMBL document CHEMBL4038288, “Novel quinoxalinyl chalcone hybrid scaffolds as enoyl ACP reductase inhibitors: Synthesis, molecular docking and biological evaluation” (Bioorg Med Chem Lett, 2017)
